{"source": "patent US20080176787A1", "about": "“Parathyroid hormone analogues and methods of use” (priority 2005, published 2008)", "key": {"[1]": {"assay": "Phase II pharmacokinetic evaluation of subcutaneous Ostabolin-C (Baseline and Week 12 subset)", "format": "in vivo, human", "settings": "human, blood; for Cmax: read-out: Cmax", "description": "The objective of this portion of the study was to evaluate the pharmacokinetics of Ostabolin-C under steady state conditions when given subcutaneously (sc) once a day to post-menopausal female subjects with low bone mineral density.\nAfter Screening procedures and a 2-week placebo run-in phase, subjects were to be dosed once a day for 16 weeks with either Placebo or Ostabolin-C (7.5, 15, 30 or 45 μg). A subset of subjects from all treatment groups had blood collected for measurements of Ostabolin-C in order to determine PK parameters and compare them to prior studies.\nThe full study duration of the study was 22 weeks, which included a 6-week screening period involving a 2-week placebo run-in and then 16 weeks of treatment. The subset of subjects for this component of the study was treated the same as all other subjects with the exception of the additional blood collections at baseline and Week 12.\nAll of the values from the Placebo subject except one (Baseline 2 hour time-point) were below the assay level of detection (i.e., 10 pg/ml). With very limited exceptions, all values from Placebo subjects in prior trials have also been below the levels of detection. Thus, this one value was considered to be a laboratory error and PK parameters for this placebo subject were not calculated.\nNo samples were obtained for Pre-dose at either Baseline or Week 12. In all prior studies, pre-treatment values have been below the levels of detection and 24-hour time points at doses of 40 ug and below have been below the levels of detection. Thus, no observable values were anticipated and for calculating PK the pre-treatment values for Baseline visit were set to zero.\nFor pre-dose at Week 12, it was also anticipated that the values would be below the levels of detection based on prior studies and that the 24-hour post dose value would verify this. Only two 24-hour time-point values were above the level of detection; i.e. 24 hours post dosing at Baseline for Subject 030-003 and 24 hours post dosing at Week 12 for Subject 030-0004. The values of both of these 24-hour time-points were marginally above the assay level of detection. Also, both of these subjects had values below the levels of detection for both the 4 hour and 6 hour time-points after dosing on the prior day. Thus, these values are most likely artifacts and not real values. No valid 24 hour sample for subject 032-0001 at Week 12 was obtained. […] Thus, for calculating PK parameters, the Pre-dose values for Week 12 were also set to zero.\nThe pharmacokinetic parameters that were estimated at Baseline and Week 12 are as follows:\nAUC values were estimated by a simple summation of trapezoidal areas from each time period. Data from each dose group were summarized using simple statistics on an Excel® spreadsheet; i.e., average (AVG) and Standard Deviation (STD). It should be noted that particularly with the lower doses and associated low blood levels and at late time points, those values just above versus just below the assay limits of detection can have a disproportionate impact to AUC calculations. This adds to that variability of the calculated numbers."}, "[2]": {"system": "post-menopausal women with low bone mineral density", "assay": "Phase II clinical study of subcutaneous Ostabolin-C in post-menopausal women with low BMD (BMD, bone markers, serum calcium, side effects)", "settings": "for Sitting HR / Headache / HyperCa > 2.65 / HyperCa > 2.75 / N + H / Nausea: 4 months; for Headache / HyperCa > 2.65 / HyperCa > 2.75 / N + H / Nausea: unit assumed", "from_the_text": "A four month Phase II clinical study was undertaken to investigate the safety, tolerability and efficacy of Ostabolin-C™ in post-menopausal women with low bone mineral density (BMD). […] The clinical protocol is a 16-week phase II randomized, double-blind, placebo-controlled, parallel group, dose finding study to investigate the safety, tolerability and efficacy of Ostabolin-C™ in post-menopausal women with low bone mineral density (BMD). In this study, 261 patients underwent four months of daily dosing of placebo and four active groups. The active groups included daily administration of Ostabolin-C™ in doses of 7.5, 15, 30, and 45 μg. Ostabolin-C™ is formulated as a clear, colorless liquid provided in pre-filled syringes and injected subcutaneously (SC). Subjects self-administer SC 0.1 mL injections of their assigned dose of Ostabolin-C™ 7.5, 15, 30, and 45 μg or placebo daily for 16 weeks in rotating quadrants of the abdomen. The subjects were post-menopausal women (for at least 5 years) with moderate osteoporosis.\nThe key endpoints for the study include change in mean BMD at the lumbar spine, as assessed by dual energy x-ray absorptiometry (DEXA), and measured by change from the Baseline visit. The Baseline visit is the first visit of the patient, before undergoing any treatment. Secondary efficacy endpoints include the following, as measured by change from Baseline visit:\nDEXA: Bone formation and resorption markers: • Mean femoral neck BMD • Serum osteocalcin • Mean trochanter BMD • Serum amino terminal pro-peptide of type 1 pro-collagen (P1NP) • Mean total hip BMD • Mean radial BMD (distal and midshaft) • Bone specific alkaline phosphatase (BSAP) • Bone mineral content (BMC) • Serum C-telopeptide (CTx) • Bone area • Serum N-telopeptide (NTx)"}}, "note": "Where two headings read alike, the source gives them in different places. Positions of bridges follow the written chain, without caps; N, C: chain ends. Residues, ends and D or L forms follow the SMILES beside them.", "data": [{"compound": "CC[C@H](C)[C@H](NC(=O)[C@H](CCC(=O)O)NC(=O)[C@H](CO)NC(=O)[C@@H](NC(=O)[C@@H](N)CO)C(C)C)C(=O)N[C@@H](CCC(N)=O)C(=O)N[C@@H](CC(C)C)C(=O)N[C@@H](CCSC)C(=O)N[C@@H](Cc1c[nH]cn1)C(=O)N[C@@H](CC(N)=O)C(=O)N[C@@H](CC(C)C)C(=O)NCC(=O)N[C@@H](CCCCN)C(=O)N[C@@H](Cc1c[nH]cn1)C(=O)N[C@@H](CC(C)C)C(=O)N[C@@H](CC(N)=O)C(=O)N[C@@H](CO)C(=O)N[C@@H](CCSC)C(=O)N[C@@H](CCC(=O)O)C(=O)N[C@@H](CCCN=C(N)N)C(=O)N[C@H](C(=O)N[C@H]1CCC(=O)NCCCC[C@@H](C(=O)N[C@@H](CC(C)C)C(=O)N[C@@H](CC(C)C)C(=O)N[C@@H](CCC(N)=O)C(=O)N[C@@H](CC(=O)O)C(=O)N[C@H](C(N)=O)C(C)C)NC(=O)[C@H](CCCN=C(N)N)NC(=O)[C@H](CC(C)C)NC(=O)[C@H](Cc2c[nH]c3ccccc23)NC1=O)C(C)C", "note": "[Ostabolin-C, [Leu^27]cyclo[Glu^22-Lys^26]-PTH-(1-31)-NH2] (H-SVSEIQLMHNLGKHLNSMERVEWLRKLLQDV-NH2; lactam 22-26)", "values": [{"measurement": "Tmax", "setting": "[1]; female, sc, all doses, Baseline and Week 12 (STD 0.21 hrs), read-out: Tmax, overall average", "value": 20.4, "unit": "min"}, {"measurement": "AUC(0-t)", "setting": "[1]; female, subcutaneous, 7.5 ug, Baseline, 7.5 ug, AVG, read-out: AUC(0-4)", "value": 0.0388, "unit": "ng·h/mL"}, {"measurement": "AUC(0-t)", "setting": "[1]; female, subcutaneous, 7.5 ug, Baseline, 7.5 ug, AVG, read-out: AUC(0-24)", "value": 0.0425, "unit": "ng·h/mL"}, {"measurement": "Cmax", "setting": "[1]; female, subcutaneous, 7.5 ug, Baseline, 7.5 ug, AVG", "value": 0.0272, "unit": "ng/mL"}, {"measurement": "AUC(0-t)", "setting": "[1]; female, subcutaneous, 15 ug, Baseline, 15 ug, AVG, read-out: AUC(0-4)", "value": 0.0742, "unit": "ng·h/mL"}, {"measurement": "AUC(0-t)", "setting": "[1]; female, subcutaneous, 15 ug, Baseline, 15 ug, AVG, read-out: AUC(0-24)", "value": 0.0742, "unit": "ng·h/mL"}, {"measurement": "Cmax", "setting": "[1]; female, subcutaneous, 15 ug, Baseline, 15 ug, AVG", "value": 0.0449, "unit": "ng/mL"}, {"measurement": "Tmax", "setting": "[1]; female, subcutaneous, 15 μg, Dose 15, mean of Baseline and Week 12 data, read-out: Tmax", "value": 19.8, "unit": "min"}, {"measurement": "Tmax", "setting": "[1]; female, subcutaneous, 15 ug, Week 12, 15 ug, AVG, read-out: Tmax", "value": 19.8, "unit": "min"}, {"measurement": "AUC(0-t)", "setting": "[1]; female, subcutaneous, 45 ug, Baseline, 45 ug, AVG, read-out: AUC(0-4)", "value": 0.341, "unit": "ng·h/mL"}, {"measurement": "AUC(0-t)", "setting": "[1]; female, subcutaneous, 45 ug, Baseline, 45 ug, AVG, read-out: AUC(0-24)", "value": 0.42, "unit": "ng·h/mL"}, {"measurement": "Cmax", "setting": "[1]; female, subcutaneous, 45 ug, Baseline, 45 ug, AVG", "value": 0.174, "unit": "ng/mL"}, {"measurement": "Cmax", "setting": "[1]; subcutaneous, 7.5 ug, Baseline, 7.5 ug, individual subjects", "value": 0.0207, "unit": "ng/mL"}, {"measurement": "Cmax", "setting": "[1]; subcutaneous, 7.5 ug, Week 12, 7.5 ug, individual subjects", "value": 0.021, "unit": "ng/mL"}, {"measurement": "Tmax", "setting": "[1]; subcutaneous, 7.5 ug, Week 12, 7.5 ug, individual subjects, read-out: Tmax", "value": 15, "unit": "min"}, {"measurement": "AUC(0-t)", "setting": "[1]; subcutaneous, 15 ug, Baseline, 15 ug, individual subjects, read-out: AUC(0-4)", "value": 0.066, "unit": "ng·h/mL"}, {"measurement": "AUC(0-t)", "setting": "[1]; subcutaneous, 15 ug, Baseline, 15 ug, individual subjects, read-out: AUC(0-24)", "value": 0.066, "unit": "ng·h/mL"}, {"measurement": "Cmax", "setting": "[1]; subcutaneous, 15 ug, Baseline, 15 ug, individual subjects", "value": 0.0306, "unit": "ng/mL"}, {"measurement": "Tmax", "setting": "[1]; subcutaneous, 15 ug, Baseline, 15 ug, individual subjects, read-out: Tmax", "value": 30, "unit": "min"}, {"measurement": "Tmax", "setting": "[1]; subcutaneous, 15 ug, Week 12, 15 ug, individual subjects, read-out: Tmax", "value": 15, "unit": "min"}, {"measurement": "AUC(0-t)", "setting": "[1]; subcutaneous, 30 ug, Baseline, 30 ug, individual subject, read-out: AUC(0-4)", "value": 0.104, "unit": "ng·h/mL"}, {"measurement": "AUC(0-t)", "setting": "[1]; subcutaneous, 30 ug, Baseline, 30 ug, individual subject, read-out: AUC(0-24)", "value": 0.104, "unit": "ng·h/mL"}, {"measurement": "Cmax", "setting": "[1]; subcutaneous, 30 ug, Baseline, 30 ug, individual subject", "value": 0.0639, "unit": "ng/mL"}, {"measurement": "Tmax", "setting": "[1]; subcutaneous, 30 ug, Baseline, 30 ug, individual subject, read-out: Tmax", "value": 30, "unit": "min"}, {"measurement": "AUC(0-t)", "setting": "[1]; subcutaneous, 30 ug, Week 12, 30 ug, individual subjects, read-out: AUC(0-24)", "value": 0.154, "unit": "ng·h/mL"}, {"measurement": "Cmax", "setting": "[1]; subcutaneous, 30 ug, Week 12, 30 ug, individual subjects", "value": 0.0762, "unit": "ng/mL"}, {"measurement": "Tmax", "setting": "[1]; subcutaneous, 30 ug, Week 12, 30 ug, individual subjects, read-out: Tmax", "value": 15, "unit": "min"}, {"measurement": "AUC(0-t)", "setting": "[1]; subcutaneous, 45 ug, Baseline, 45 ug, individual subjects, read-out: AUC(0-4)", "value": 0.337, "unit": "ng·h/mL"}, {"measurement": "AUC(0-t)", "setting": "[1]; subcutaneous, 45 ug, Baseline, 45 ug, individual subjects, read-out: AUC(0-24)", "value": 0.47, "unit": "ng·h/mL"}, {"measurement": "Tmax", "setting": "[1]; subcutaneous, 45 ug, Baseline, 45 ug, individual subjects, read-out: Tmax", "value": 30, "unit": "min"}, {"measurement": "AUC(0-t)", "setting": "[1]; subcutaneous, 45 ug, Week 12, 45 ug, individual subject, read-out: AUC(0-4)", "value": 0.128, "unit": "ng·h/mL"}, {"measurement": "AUC(0-t)", "setting": "[1]; subcutaneous, 45 ug, Week 12, 45 ug, individual subject, read-out: AUC(0-24)", "value": 0.128, "unit": "ng·h/mL"}, {"measurement": "Cmax", "setting": "[1]; subcutaneous, 45 ug, Week 12, 45 ug, individual subject", "value": 0.0871, "unit": "ng/mL"}, {"measurement": "Tmax", "setting": "[1]; subcutaneous, 45 ug, Week 12, 45 ug, individual subject, read-out: Tmax", "value": 15, "unit": "min"}, {"measurement": "Mean [Ca]", "setting": "[2]; 30 μg (4 months)", "value": 0.040, "unit": "mmol/L"}, {"measurement": "hypercalcemia seen at least once, % of group", "setting": "[2]; 30 μg doses (placebo 5%)", "value": 5, "unit": "%"}, {"measurement": "Sitting HR", "setting": "[2]; 30 ug", "value": 2.4}, {"measurement": "Headache", "setting": "[2]; 30 ug", "value": 19.6, "unit": "%"}, {"measurement": "HyperCa > 2.65", "setting": "[2]; 30 ug", "value": 4.5, "unit": "%"}, {"measurement": "HyperCa > 2.75", "setting": "[2]; 30 ug", "value": 2.3, "unit": "%"}, {"measurement": "N + H", "setting": "[2]; 30 ug", "value": 7.8, "unit": "%"}, {"measurement": "Nausea", "setting": "[2]; 30 ug", "value": 25.5, "unit": "%"}, {"measurement": "Mean [Ca]", "setting": "[2]; 45 μg (4 months)", "value": 0.070, "unit": "mmol/L"}, {"measurement": "Sitting HR", "setting": "[2]; 45 ug", "value": 4.0}, {"measurement": "Headache", "setting": "[2]; 45 ug", "value": 21.8, "unit": "%"}, {"measurement": "HyperCa > 2.65", "setting": "[2]; 45 ug", "value": 27.3, "unit": "%"}, {"measurement": "HyperCa > 2.75", "setting": "[2]; 45 ug", "value": 9.1, "unit": "%"}, {"measurement": "N + H", "setting": "[2]; 45 ug", "value": 12.7, "unit": "%"}, {"measurement": "Nausea", "setting": "[2]; 45 ug", "value": 29.1, "unit": "%"}, {"measurement": "percent of abnormal serum calcium", "setting": "[2]; doses up to and including 30 μg (FIG. 14)", "value": "no notable difference from placebo"}]}]}
